Source: US20090270342A1, “IMMUNOREGULATORY AGENT” (priority 2006, published 2009)

Legend:
[1] = system: anti-Cry j 1-IgE, IgG1 in serum; experiment: Anti-Cry j 1 antibody in serum of Cry j 1/alum-sensitized mice (Experiment 5); type: in vivo; details: for Anti-Cry J 1-IgG1 in serum / Anti-Cry J 1-IgG1 in serum, relative to control: two weeks after the second sensitization
Method: (§1) In order to investigate the effect of lactosucorse on systemic immunity, antibody level in serum was measured. Similarly as in Experiment 1, female BALB/c mice (six weeks old) were preliminary reared for one week on “AIN-93G”, the same standard purified diet as used in Experiment 1. Successively, “NYU-KA OLIGO 700”, a saccharide composition comprising 71.4% (w/w), on a dry solid basis, of lactosucrose commercialized by Hayashibara Shoji Inc., Okayama, Japan, was incorporated into the above purified diet, in which corn starch equal to the amount of the saccharide composition comprising lactosucrose had been removed, to give a lactosucrose content of 2% (w/w) or 5% (w/w), and five to seven mice/group were allowed to ingest the resulting test diet freely. Mice, allowed to ingest “AIN-93G”, as the standard purified diet, were used as control. At 10 days after from starting the administration of the test diet, mice were sensitized to antigen by administrating 20 μg of ovalbumin (OVA) (grade V, commercialized by Sigma Corporation) as antigen and 4.5 mg of “IMJECT®”, alum commercialized by Pierce ThermoScientific as adjuvant, into the peritoneal cavity. Successively, 15 days after from the first sensitization, the second sensitization was carried out by the same procedure. The blood was collected from caudal vein of mice at one, two, and three weeks after from the second sensitization, the serum was collected by centrifugation, and the amount of IgE to OVA was measured by EIA. In the cases of IgG1 and IgG2a, the amount of antibody was measured using serum collected at two weeks after from the second sensitization. The IgE and IgG2a titers were measured by capture EIA and IgG1 titer was measured by indirect EIA. Each titer was calculated by calibration curve prepared by using anti-OVA mouse serum (IgE: 1.760 U/ml, IgG1: 128,000 U/ml, IgG2a: 7,040 u/ml) as a standard serum. The amounts of IgE at one, two, or three weeks after from the second sensitization are in Table 5, and the amounts of IgG1 and IgG2a of two weeks after from the second sensitization are in Table 6. The percentages in parentheses in tables mean a relative value to the antibody concentration in serum of the control mice.
In order to investigate the usefulness of lactosucrose ingestion for preventing or treating allergy to cedar pollen, the effect of lactosucrose for suppressing the production of IgE, caused by Cry j 1, a cedar pollen allergen, was investigated as follows. Except for using 20 μg of “PURIFIED CEDAR POLLEN ALLERGEN Cry j 1”, Cry j 1 commercialized by Seikagaku Corporation, Tokyo, Japan, as a substitute for OVA, the experiment was carried out by the same procedure as in Experiment 4, and the amount of anti-Cry j 1-IgE was measured at one and two weeks after the second sensitization. Further, the amount of anti-Cry j 1-IgG1 was also measured at two weeks after the second sensitization. The amounts of anti-Cry j 1-IgE and anti-Cry j 1-IgG1 were measured by the same procedure as in Experiment 4 except for using “PURIFIED CEDAR POLLEN ALLERGEN Cry j 1-Biotin”, commercialized by Seikagaku Corporation, Tokyo, Japan, as a solid phase. The results for IgE and IgG1 are in Tables 7 and 8, respectively.

[2] = system: IgA and IgG in cecal content; experiment: pH, weight, IgA and IgG of cecal content (Experiment 2); type: in vivo, mice; details: Lactosucrose 5% (w/w) diet, four weeks
Method: The effect of lactosucrose on the enhancement of gut immunity was investigated by measuring the amounts of IgA and IgG in cecal content. Mice reared for four weeks on the test diet comprising 5% (w/w) of lactosucrose or the control diet, “AIN-93G”, in Experiment 1 were sacrificed and the cecums were extirpated. Successively, the cecal content in each mouse was collected from the cecum and the pH, weight, the amounts of IgA and IgG were measured. The amounts of IgA and IgG were determined by ELISA using an anti-IgA antibody and that using an anti-IgG antibody (Mouse IgG ELISA Quantitation Kit produced by Bethyl Laboratories, Inc., Texas, USA), and expressed by mg/g-cecal content and ng/g-cecal content, respectively. The percentages in parentheses in Table 2 mean the relative values to those of the control.

[3] = system: anti-OVA-IgE, IgG1, IgG2a in serum; experiment: Anti-OVA antibody in serum of OVA/alum-sensitized mice (Experiment 4); type: in vivo; details: for Anti-OVA-IgG1 in serum / Anti-OVA-IgG2a in serum / Anti-OVA-IgG1 in serum, relative value to control / Anti-OVA-IgG2a in serum, relative value to control: two weeks after the second sensitization
Method: as §1

[4] = Lactosucrose 2% (w/w) diet, one week after the 2nd sensitization
[5] = Lactosucrose 2% (w/w) diet, two weeks after the 2nd sensitization
[6] = Lactosucrose 2% (w/w), one week after the 2nd sensitization
[7] = Lactosucrose 2% (w/w), two weeks after the 2nd sensitization
[8] = Lactosucrose 5% (w/w) diet, one week after the 2nd sensitization
[9] = Lactosucrose 5% (w/w) diet, two weeks after the 2nd sensitization
[10] = Lactosucrose 5% (w/w), one week after the 2nd sensitization
[11] = Lactosucrose 5% (w/w), two weeks after the 2nd sensitization

OC[C@H]1O[C@@H](O[C@H]2[C@H](O)[C@@H](O)[C@@H](O[C@]3(CO)O[C@H](CO)[C@@H](O)[C@@H]3O)O[C@@H]2CO)[C@H](O)[C@@H](O)[C@H]1O [Lactosucrose, β-D-galactosyl-(1,4)-α-D-glucosyl-(1,2)-β-D-fructoside]
Anti-Cry j 1-IgE in serum [1, 4]: 351 ± 277 U/ml | Anti-Cry j 1-IgE in serum [1, 5]: 239 ± 180 U/ml | Anti-Cry J 1-IgG1 in serum ([1]; Lactosucrose 2% (w/w) diet): 10.3 ± 6.01 ×10^4 U/ml | Anti-Cry j 1-IgE in serum, relative to control [1, 6]: (44%) | Anti-Cry j 1-IgE in serum, relative to control ([1]; Lactosucrose 2% (w/w), one week after the 2nd sensitization, listed as lactosucrose): 44% | Anti-Cry j 1-IgE in serum, relative to control [1, 7]: (23%) | Anti-Cry j 1-IgE in serum, relative to control ([1]; Lactosucrose 2% (w/w), two weeks after the 2nd sensitization, listed as lactosucrose): 23% | Anti-Cry J 1-IgG1 in serum, relative to control ([1]; Lactosucrose 2% (w/w)): (80%) | Anti-Cry j 1-IgE in serum [1, 8]: 620 ± 157 U/ml | Anti-Cry j 1-IgE in serum [1, 9]: 404 ± 114 U/ml | Anti-Cry J 1-IgG1 in serum ([1]; Lactosucrose 5% (w/w) diet): 7.51 ± 2.89 ×10^4 U/ml | Anti-Cry j 1-IgE in serum, relative to control [1, 10]: (77%) | Anti-Cry j 1-IgE in serum, relative to control [1, 11]: (38%) | Anti-Cry J 1-IgG1 in serum, relative to control ([1]; Lactosucrose 5% (w/w)): (58%) | IgA in cecal content [2]: 5.6 ± 1.6 mg/g | IgA in cecal content, relative value to control [2]: (982%) | IgG in cecal content [2]: 140 ± 54 ng/g | IgG in cecal content, relative value to control [2]: (117%) | Weight of cecal content [2]: 0.22 ± 0.051 g | Weight of cecal content, relative value to control [2]: (169%) | pH of cecal content [2]: 6.63 ± 0.27 | Increase of the amount of secreted IgA in cecal content ([2]; versus control): about 10 folds | Anti-OVA-IgE in serum [3, 4]: 270 ± 160 U/ml | Anti-OVA-IgE in serum ([3]; Lactosucrose 2% (w/w) diet, three weeks after the 2nd sensitization): 110 ± 62 U/ml | Anti-OVA-IgE in serum [3, 5]: 150 ± 35 U/ml | Anti-OVA-IgG1 in serum ([3]; Lactosucrose 2% (w/w) diet): 27 ± 10 ×10^4 U/ml | Anti-OVA-IgG2a in serum ([3]; Lactosucrose 2% (w/w) diet): 4.0 ± 3.4 ×10^4 U/ml | Anti-OVA-IgE in serum, relative value to control [3, 6]: (87%) | Anti-OVA-IgE in serum, relative value to control ([3]; Lactosucrose 2% (w/w), three weeks after the 2nd sensitization): (52%) | Anti-OVA-IgE in serum, relative value to control [3, 7]: (58%) | Anti-OVA-IgG1 in serum, relative value to control ([3]; Lactosucrose 2% (w/w)): (68%) | Anti-OVA-IgG2a in serum, relative value to control ([3]; Lactosucrose 2% (w/w)): (41%) | Anti-OVA-IgE in serum [3, 8]: 290 ± 77 U/ml | Anti-OVA-IgE in serum ([3]; Lactosucrose 5% (w/w) diet, three weeks after the 2nd sensitization): 160 ± 57 U/ml | Anti-OVA-IgE in serum [3, 9]: 120 ± 32 U/ml | Anti-OVA-IgG1 in serum ([3]; Lactosucrose 5% (w/w) diet): 28 ± 7.5 ×10^4 U/ml | Anti-OVA-IgG2a in serum ([3]; Lactosucrose 5% (w/w) diet): 4.8 ± 3.8 ×10^4 U/ml | Anti-OVA-IgE in serum, relative value to control [3, 10]: (94%) | Anti-OVA-IgE in serum, relative value to control ([3]; Lactosucrose 5% (w/w), three weeks after the 2nd sensitization): (48%) | Anti-OVA-IgE in serum, relative value to control [3, 11]: (46%) | Anti-OVA-IgG1 in serum, relative value to control ([3]; Lactosucrose 5% (w/w)): (70%) | Anti-OVA-IgG2a in serum, relative value to control ([3]; Lactosucrose 5% (w/w)): (49%)
